According to publication PMC8041284, “Tunable Methacrylamides for Covalent Ligand Directed Release Chemistry” (Journal of the American Chemical Society, 2021):
“Also recorded” adds a separate entry of the source.

Tests used:
BTK [1] = target: T1, BTK (Homo sapiens, UniProt Q06187); test: HTS with the chemiluminescent probe 3l (%BTK binding inhibition); conditions: 10 μM compound, 0.75 μM BTK
BTK [2] = target: T1, BTK; test: biochemical; conditions: read-out: BTK inhibition (%), 0.75 uM BTK, […] probe 3l, 15 min preincubation
EGFR [3] = target: T2, EGFR (Homo sapiens, UniProt P00533); test: Fluorescence intensity measurement of CoLDR turn-on probe; assay type: binding; design: EGFR kinase domain was a generous gift from Prof; Michael Eck; gift from Prof; conditions: 2 μM probe, 2 μM protein
Protocol: (§1) A 2 μM concentration of BTK, EGFR, or K-RAS^G12C was added to 2 μM 3k, 4b, or 5a, respectively. […] Each condition was done in triplicates in 20 mM Tris pH 8.0 and 50 mM NaCl for BTK and K-RAS^G12C and in 50 mM Tris pH 8.0 and 100 mM NaCl for EGFR at 32 °C. Fluorescent measurements were taken every 2 min for 2 h for BTK and EGFR and every 10 min for 15 h for K-RAS^G12C. At the end of the measurements, samples were injected directly into the LC/MS for labeling quantification. K-Ras^G12C was expressed and purified as previously described,[69] EGFR kinase domain was a generous gift from Prof. Michael Eck.
Target sequence in this assay (P00533 712-979 limits assumed): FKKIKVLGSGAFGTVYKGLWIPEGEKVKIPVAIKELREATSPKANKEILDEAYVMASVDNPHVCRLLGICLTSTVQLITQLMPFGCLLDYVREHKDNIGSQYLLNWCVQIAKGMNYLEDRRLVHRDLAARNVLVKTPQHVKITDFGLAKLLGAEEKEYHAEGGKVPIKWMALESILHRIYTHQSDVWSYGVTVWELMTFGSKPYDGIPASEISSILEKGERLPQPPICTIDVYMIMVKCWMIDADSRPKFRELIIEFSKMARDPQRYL

EGFR [4] = target: T2, EGFR; test: In vitro kinase activity assay (Nanosyn); assay type: biochemical; conditions: EGFR kinase activity assay, 0.75 nM EGFR, 5 μM ATP
Target sequence in this assay (P00533 25-1210): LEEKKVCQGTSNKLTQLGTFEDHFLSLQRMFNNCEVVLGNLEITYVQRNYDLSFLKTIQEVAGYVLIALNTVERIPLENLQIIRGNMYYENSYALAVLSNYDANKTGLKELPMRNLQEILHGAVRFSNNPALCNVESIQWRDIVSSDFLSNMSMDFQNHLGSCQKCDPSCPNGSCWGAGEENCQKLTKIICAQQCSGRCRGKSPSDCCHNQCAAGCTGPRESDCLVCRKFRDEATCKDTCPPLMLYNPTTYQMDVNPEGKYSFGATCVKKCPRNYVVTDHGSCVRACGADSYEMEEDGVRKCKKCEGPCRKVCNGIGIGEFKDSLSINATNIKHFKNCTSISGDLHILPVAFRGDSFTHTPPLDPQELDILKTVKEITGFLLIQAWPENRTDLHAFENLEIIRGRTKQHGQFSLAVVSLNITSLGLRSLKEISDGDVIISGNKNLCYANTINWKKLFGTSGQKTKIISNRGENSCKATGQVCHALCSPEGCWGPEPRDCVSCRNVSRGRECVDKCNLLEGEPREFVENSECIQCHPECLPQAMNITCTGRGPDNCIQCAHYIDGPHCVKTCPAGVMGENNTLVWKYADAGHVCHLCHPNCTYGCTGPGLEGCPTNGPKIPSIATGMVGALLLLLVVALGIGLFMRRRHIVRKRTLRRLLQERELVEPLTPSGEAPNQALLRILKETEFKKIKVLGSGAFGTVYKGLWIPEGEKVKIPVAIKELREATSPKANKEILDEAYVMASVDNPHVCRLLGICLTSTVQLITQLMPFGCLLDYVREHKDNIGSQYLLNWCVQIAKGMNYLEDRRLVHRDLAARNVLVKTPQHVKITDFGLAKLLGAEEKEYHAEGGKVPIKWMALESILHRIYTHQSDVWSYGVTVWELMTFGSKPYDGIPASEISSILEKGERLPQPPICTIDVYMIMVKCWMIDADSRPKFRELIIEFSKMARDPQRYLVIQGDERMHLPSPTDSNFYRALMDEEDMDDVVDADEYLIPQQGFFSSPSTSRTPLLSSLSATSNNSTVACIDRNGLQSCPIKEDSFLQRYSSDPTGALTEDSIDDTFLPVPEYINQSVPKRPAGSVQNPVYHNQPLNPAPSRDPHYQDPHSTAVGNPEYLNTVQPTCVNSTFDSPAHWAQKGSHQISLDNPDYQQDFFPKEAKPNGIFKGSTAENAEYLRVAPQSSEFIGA
Protocol: (§2) Kinase reactions are assembled in 384-well plates (Greiner) in a total volume of 20 μL. Test compounds were diluted in DMSO to a final concentration, while the final concentration of DMSO in all assays was kept at 1%. The compounds were incubated with the kinases for 2 h. […] The reaction was initiated by 2-fold dilution into a solution containing 5 μM ATP and 1 μM substrate in the kinase buffer
in 100 mM HEPES, pH 7.5, 0.1% BSA, 0.01% Triton X-100, 1 mM DTT, 10 mM MnCl2.
initiated by 2-fold dilution into a solution containing 5 μM ATP and 1 μM substrate in the kinase buffer.

BTK [5] = target: T1, BTK; test: Chemiluminescence emission of probe 3l with BTK; conditions: 2 μM probe, 2 μM BTK
wild-type BTK = wild-type BTK (Homo sapiens, UniProt Q06187); test: In vitro kinase activity assay (Nanosyn); conditions: BTK IC50, 0.6 nM BTK, 5 μM ATP; Figure 4C
Protocol: as §2

BSA = BSA (Bos taurus, UniProt P02769); test: Turn-on fluorescence selectivity control with BSA; assay type: binding; conditions: 10 μM BSA with 2 μM 3k
Text: The fact that a specific leaving group is released as a function of selective binding of a target protein can be used to functionalize irreversible inhibitors, for example as turn-on fluorescent probes. To assess the applicability and generality of this approach, we chose three therapeutic targets for which acrylamide inhibitors are available: BTK, EGFR, and K-RAS^G12C as model systems. Initially, we treated 3k (Figure 6A) with BTK, measured the released coumarin fluorescence, and validated the labeling via LC/MS (Figure 6B,C). […] We could also […] the rate of the reaction by using 20:1 equiv of protein:probe (Figure S16). […] The release can also be inhibited by preincubation of BTK with iodoacetamide alkyne (IAA; Figure S17B).
Figure S17. […] A. 10 μM BSA with 2
B. 2 μM BTK fully labeled with IAA (red) compared to 2 μM non labeled BTK (blue) with 2 μM 3k. The lack of signal for the labeled BTK indicated the fluorescence is triggered by a free cysteine.
(1 picture or pasted object on this page, not shown here)

BTK [6] = target: T1, BTK; test: Fluorescence intensity measurement of CoLDR turn-on probe; assay type: binding; conditions: 2 μM probe, 2 μM BTK
K-Ras^G12C = K-Ras^G12C (Homo sapiens, UniProt P01116, G12C); test: as above; assay type: binding; conditions: 2 μM probe, 2 μM protein
Protocol: as §1

T1 sequence (Q06187 402-655 limits assumed): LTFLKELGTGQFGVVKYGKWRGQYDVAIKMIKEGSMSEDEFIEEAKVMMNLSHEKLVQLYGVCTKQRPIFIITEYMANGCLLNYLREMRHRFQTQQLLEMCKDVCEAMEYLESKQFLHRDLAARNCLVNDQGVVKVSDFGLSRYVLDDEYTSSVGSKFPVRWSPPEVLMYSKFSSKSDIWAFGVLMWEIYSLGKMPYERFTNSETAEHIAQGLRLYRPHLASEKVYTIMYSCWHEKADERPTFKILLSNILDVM
BSA, sequence (P02769 25-607): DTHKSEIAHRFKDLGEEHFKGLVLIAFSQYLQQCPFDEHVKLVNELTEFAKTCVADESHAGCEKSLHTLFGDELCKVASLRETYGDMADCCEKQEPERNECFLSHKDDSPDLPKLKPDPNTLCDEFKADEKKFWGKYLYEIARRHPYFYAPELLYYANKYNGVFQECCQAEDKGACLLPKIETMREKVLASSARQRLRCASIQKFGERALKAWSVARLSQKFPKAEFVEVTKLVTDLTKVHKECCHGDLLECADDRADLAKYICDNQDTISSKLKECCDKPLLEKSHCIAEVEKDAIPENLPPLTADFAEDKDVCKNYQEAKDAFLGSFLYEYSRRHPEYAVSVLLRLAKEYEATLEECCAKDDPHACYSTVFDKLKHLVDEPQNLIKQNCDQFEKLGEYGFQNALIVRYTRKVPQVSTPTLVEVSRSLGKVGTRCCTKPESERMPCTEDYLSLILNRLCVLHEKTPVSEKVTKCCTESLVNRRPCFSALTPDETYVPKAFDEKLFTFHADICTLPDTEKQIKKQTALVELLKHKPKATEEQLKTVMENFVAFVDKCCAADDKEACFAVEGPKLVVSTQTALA
wild-type BTK, sequence (Q06187 whole entry): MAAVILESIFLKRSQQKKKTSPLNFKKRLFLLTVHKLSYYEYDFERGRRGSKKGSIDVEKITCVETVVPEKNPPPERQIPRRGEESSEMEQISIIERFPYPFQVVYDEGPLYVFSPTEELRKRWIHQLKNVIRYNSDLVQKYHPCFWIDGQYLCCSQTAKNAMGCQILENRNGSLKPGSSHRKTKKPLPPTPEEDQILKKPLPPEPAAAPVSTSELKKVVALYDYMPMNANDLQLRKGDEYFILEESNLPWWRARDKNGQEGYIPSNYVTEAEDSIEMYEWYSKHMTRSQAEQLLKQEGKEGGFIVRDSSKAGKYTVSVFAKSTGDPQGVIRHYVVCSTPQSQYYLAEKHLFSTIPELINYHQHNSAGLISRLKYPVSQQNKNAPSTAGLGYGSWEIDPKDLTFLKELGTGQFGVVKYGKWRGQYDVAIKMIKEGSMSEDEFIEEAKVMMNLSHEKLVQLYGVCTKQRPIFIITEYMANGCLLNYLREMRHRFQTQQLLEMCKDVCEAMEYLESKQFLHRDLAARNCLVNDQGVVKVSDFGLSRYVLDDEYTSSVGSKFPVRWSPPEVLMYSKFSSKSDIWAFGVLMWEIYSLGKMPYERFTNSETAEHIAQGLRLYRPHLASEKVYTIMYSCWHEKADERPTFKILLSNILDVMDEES

## Cc1cc(-c2ccc(N=Nc3ccc4c(S(=O)(=O)O)cc(S(=O)(=O)O)c(N)c4c3O)c(C)c2)ccc1N=Nc1ccc2c(S(=O)(=O)O)cc(S(=O)(=O)O)c(N)c2c1O [PCM-0214845]
BTK [1]
  BTK inhibition (%): 125.3%
BTK [2]
  inhibition at 10 µM: 125%

## C=C(COc1ccc2ccc(=O)oc2c1)C(=O)Nc1cc2c(Nc3ccc(F)c(Cl)c3)ncnc2cc1OC [4b]
EGFR [3]
  released coumarin fluorescence with EGFR: significant increase in fluorescence intensity
EGFR [4]
  IC50: 3.3 nM

## COc1c/c(=C2\C=c3ccccc3=N2)[nH]/c1=C\c1[nH]c(C)cc1C [PCM-0094986]
BTK [1]
  BTK inhibition (%): 133.1%
BTK [2]
  inhibition at 10 µM: 133%

## C=C(COc1c(/C=C/C(=O)OC)ccc(C2(OC)OOC23C2CC4CC(C2)CC3C4)c1Cl)C(=O)N1CCC[C@@H](n2nc(-c3ccc(Oc4ccccc4)cc3)c3c(N)ncnc32)C1 (stereo partly shown) [3l]
BTK [5]
  chemiluminescence enhancement by BTK (total photon counts vs probe alone): 90 fold
  time to maximum chemiluminescence signal: ≤ 20 min

## C=C(COc1ccc2ccc(=O)oc2c1)C(=O)N1CCC[C@@H](n2nc(-c3ccc(Oc4ccccc4)cc3)c3c(N)ncnc32)C1 [3k]
wild-type BTK
  IC50: 1 nM
BSA
  turn-on fluorescence with BSA: no reaction; also recorded: does not result in increased fluorescence
BTK [6]
  increase of fluorescence intensity at 435 nm upon addition of BTK: 30 fold
  time to saturation of fluorescence: ≤ 10 min

## C=C(COc1ccc2ccc(=O)oc2c1)C(=O)N1CCN(c2nc(=O)n(-c3c(C)ccnc3C(C)C)c3nc(-c4c(O)cccc4F)c(F)cc23)[C@@H](C)C1 [5a]
K-Ras^G12C
  released coumarin fluorescence with K-RAS^G12C: significant increase in fluorescence intensity
